{"source": "patent US20180064662A1", "about": "(THE GENERAL HOSPITAL CORPORATION, priority 2015, published 2018)", "key": {"[1]": {"test_system": "human PSC viability", "experiment": "MTT viability assay on PSCs", "assay_type": "cell-based"}, "[2]": {"test_system": "PAN02 tumors", "experiment": "Orthotopic PAN02 PDAC model in obese C57BL/6 mice, metformin in drinking water", "assay_type": "in vivo, mouse", "description": "(§1) Wild-type (WT) C57BL/6 and FVB male mice were originally obtained from The Jackson Laboratory (The Jackson Laboratory, Bar Harbor, Me.) and bred and maintained in our defined-flora animal facility. Mice were maintained on a 12-h light-dark cycle in a temperature-controlled barrier facility, with ad libitum access to food and acidified water. To generate obese/diabetic mouse models, mice (6-weeks old) were given a 60% fat diet (D12492, Research Diets, New Brunswick, N.J.) for 10 weeks as previously described (49-51). For tumor experiments, the PAN02 and AK4.4 syngeneic PDAC models were used in C57BL/6 and FVB immunocompetent mice, respectively. PAN02 cells (SMAD4-m174) (52) were obtained from ATCC. AK4.4 cells (KrasG12D and p53^+/−) were isolated from mice generating spontaneous pancreatic tumors (Pt∫1-Cre/LSL-Kras^G12D/p53^Loxi−) (53). Orthotopic pancreatic tumors were generated by implanting a small piece (1 mm^3) of viable tumor tissue (from a source tumor in a separate donor animal) into the pancreas of a 6-8- week-old male lean or obese FVB (AK4.4 model) or C57BL/6 (PAN02 model) mouse. Both tumor models used were authenticated by IDEXX Laboratories. (PAN02: IDEXX RADIL Case # 22366-2013. AK4.4: IDEXX RADIL Case # 27818-2014).\n(§2) At day 21, plasma and tumor samples were collected, and tumors were weighed and processed for further analysis.\n(§3) This can be translated to the human equivalent dose by using the Reagan-Shaw method (54). According to the formula for the human equivalent dose [(mg/kg)=animal dose (mg/kg)×animal (km)/human (km). Km for a 60 kg human adults equals 37 and for a 20 g mouse equals 3], the human equivalent of murine dose of 300 mg/kg is 1459 mg for an average sized 60 kg adult human. Therefore, the selected dose in the present study is within the safe therapeutic range recorded in humans. […] This was compatible with the therapeutic periods reported in previous studies (55, 56). […] The amount added to each animal cage was calculated based on the average daily water intake for that cage during a period of 2 weeks prior to treatment initiation, and adjusted every three days based on water consumption and body weight of the animals. […] For in vitro experiments, a range of concentration from 0.05 to 25 mM depending on the cell line used, as discussed below.\n(§4) Immediately following excision, tumor tissue was snap frozen and stored in liquid nitrogen. Total RNA was extracted and relative gene expression for macrophage M1/M2 markers was determined using a Sybr-green based standard protocol. In addition, total RNA was extracted and relative gene expression was determined using RT2 Profiler PCR Arrays system (Qiagen) on a Stratagene Mx3000P QPCR System using pre-made pathway-focused arrays (“Fibrosis”-Cat. Number: PAMM011Z; “Epithelial to Mesenchymal Transition (EMT)”-Cat. Number: PAMM090Z; “TGF-β signaling targets”-PAMM235Z; “Extracellular Matrix & Adhesion Molecules”-Cat. Number: PAMM013Z; and “Common cytokines ”-Cat. Number: PAMM021Z).\n(§5) Each tumor sample was homogenized directly in lysis buffer for protein extraction. 20 ug of denatured protein per sample was loaded on 7%, 10% and 12% SDS-polyacrylamide gels. Antibodies used: phospho-p38 MAPKT^180/Y182 and p38; phospho-JNK (SAPK/JNK)^Thr183/Tyr185 and JNK; phospho-AKT^Ser473 and AKT, phospho-ERK(p44/42 MAPK)^T202/Y204 and ERK; phospho-NF-κB^Ser536 and NK-κB; p65^Ser536; phospho-Smad2^Ser465/467 and Smad2; phospho-IGF-I Receptor β^Tyr1135 and IGF; Phospho-IRS-1^Ser612 and IRS; IR; phpspho-stat3^Tyr705 and stat3; Phospho-AMPKα^Thr172 and Ampkα; phospho-Ampkβ^Ser108 and Ampk; phospho-ACC^Ser79 and ACC; Phospho-PDGF Receptor β^Tyr751 and PDGF Receptor β and snail, c-cadherin and vimentin, TGF-β, β-catenin, twist, LC3B. […]"}, "[3]": {"test_system": "macrophage viability", "experiment": "MTT viability assay on macrophages", "assay_type": "cell-based, mouse", "details": "48 h"}, "[4]": {"details": "patients with type 2 diabetes taking this drug; cited from earlier work"}, "[5]": {"test_system": "AK4.4 tumors", "experiment": "Orthotopic AK4.4 PDAC model in obese FVB mice, metformin in drinking water", "assay_type": "in vivo, mouse", "description": "as §1, §2, §3, §4, §5"}, "[6]": {"test_system": "MCA-IV tumors", "experiment": "MCA-IV breast cancer in lean and obese mice, anti-VEGF therapy", "assay_type": "in vivo, mouse"}, "[7]": {"details": "TAMs from PAN02 tumors in vivo, qPCR"}, "[8]": {"details": "obese C57BL/6 mice, metformin 300 mg/Kg"}, "[9]": {"details": "particularly evident in the more metastatic model PAN02"}, "[10]": {"details": "obese FVB mice, metformin 300 mg/Kg"}, "[11]": {"details": "obese FVB mice, metformin 300 mg/Kg in drinking water"}, "[12]": {"details": "obese FVB mice, metformin 300 mg/Kg in drinking water, day 7 to 21"}}}
{"smiles": "CN(C)C(=N)N=C(N)N", "note": "[metformin, 3-(diaminomethylidene)-1,1-dimethylguanidine]", "values": [{"measurement": "doses at which metformin significantly reduces PSC viability", "setting": "[1]; 48 h, MTT", "value": "> 7.5", "unit": "mM"}, {"measurement": "viability of PSCs", "setting": "[1]; metformin 1 mM", "value": "does not substantially affect the viability"}, {"measurement": "expression of M1 markers in flow-sorted TAMs", "setting": "[2]; [7]", "value": "without significantly affecting"}, {"measurement": "expression of M2 marker Arg-1 in flow-sorted TAMs", "setting": "[2]; [7]", "value": "1/2"}, {"measurement": "expression of M2 marker IL-10 in flow-sorted TAMs", "setting": "[2]; [7]", "value": "2/3"}, {"measurement": "activation and phosphorylation of IGFR-1 and IRS-1 in tumors", "setting": "[2]; Western blot", "value": "trend for reduced activation and phosphorylation"}, {"measurement": "activation of ACC in tumors", "setting": "[2]; Western blot", "value": "increased"}, {"measurement": "expression of the autophagy marker L3CB", "setting": "[2]; Western blot", "value": "unchanged"}, {"measurement": "average MMP-2 levels in metformin treated tumors", "setting": "[2]; Western blot, not significant", "value": "approximately half"}, {"measurement": "IL-1β in tumors", "setting": "[2]; after metformin treatment", "value": "reduction of IL-1β"}, {"measurement": "TAM levels lower with metformin treatment", "setting": "[2]; flow cytometry, not significant", "value": "~30", "unit": "%"}, {"measurement": "activation of STAT3 in whole tumors", "setting": "[2]; [8]", "value": "decreased activation of STAT3"}, {"measurement": "p38 activation in whole tumors", "setting": "[2]; [8]", "value": "trend for reduced p38"}, {"measurement": "decreased expression of HA", "setting": "[2]; obese C57BL/6 mice, metformin 300 mg/Kg in drinking water, did not reach statistical significance", "value": 40, "unit": "%"}, {"measurement": "reduced density of HA positive activated-PSCs", "setting": "[2]; obese C57BL/6 mice, metformin 300 mg/Kg, did not reach significance", "value": 57, "unit": "%"}, {"measurement": "decreased expression of collagen-I", "setting": "[2]; obese C57BL/6 mice, metformin 300 mg/Kg, did not reach statistical significance", "value": 22, "unit": "%"}, {"measurement": "reduced density of collagen-I positive activated PSCs in tumors", "setting": "[2]; obese C57BL/6 mice, metformin 300 mg/Kg, significant", "value": 54, "unit": "%"}, {"measurement": "average number of mesenteric peritoneal and retroperitoneal wall metastasis per mouse", "setting": "[2]; [9]", "value": "reduced"}, {"measurement": "incidence of metastasis (number of mice affected)", "setting": "[2]; [9]", "value": "reduced the incidence of metastasis"}, {"measurement": "body weight", "setting": "[2]; tumor-bearing mice", "value": "no change in body weight"}, {"measurement": "doses at which metformin reduces macrophage viability", "setting": "[3]", "value": "> 0.2", "unit": "mM"}, {"measurement": "doses at which metformin reduces macrophage viability", "setting": "[3]; listed as Metformin", "value": "≥ 0.4", "unit": "mM"}, {"measurement": "approximate plasma concentration of metformin", "setting": "[4]", "value": "~0.05", "unit": "mM"}, {"measurement": "expression of genes involved in ECM remodeling (including MMPs) and EMT", "setting": "[5]; PCR array, pooled samples", "value": "reduced the expression"}, {"measurement": "E-cadherin, protein expression", "setting": "[5]; Western blot", "value": "increased"}, {"measurement": "EMT marker vimentin, protein expression", "setting": "[5]; Western blot", "value": "decreased"}, {"measurement": "activation of metabolic pathways in tumors", "setting": "[5]; Western blot", "value": "did not affect the activation of metabolic pathways"}, {"measurement": "expression of the autophagy marker L3CB", "setting": "[5]; Western blot", "value": "unchanged"}, {"measurement": "reduction of metalloproteinase 9 (MMP9) protein", "setting": "[5]; Western blot, metformin 300 mg/Kg", "value": 70, "unit": "%"}, {"measurement": "MMP activity in tumors", "setting": "[5]; compared to control mice", "value": "decreased"}, {"measurement": "TAM levels lower with metformin treatment (F4/80)", "setting": "[5]; [10]", "value": 60, "unit": "%"}, {"measurement": "activation of STAT3 in whole tumors", "setting": "[5]; [10]", "value": "decreased activation of STAT3"}, {"measurement": "expression of IL-1β and CXCL-1 in tumors (multiplex protein array)", "setting": "[5]; [10]", "value": "reduced the expression of IL-1β and CXCL-1"}, {"measurement": "decrease of percentage of activated (αSMA) PSCs that co-express HA", "setting": "[5]; [11]", "value": 58, "unit": "%"}, {"measurement": "decrease of percentage of activated (αSMA) PSCs that co-express collagen-I", "setting": "[5]; [11]", "value": 38, "unit": "%"}, {"measurement": "expression of AT1 in tumors (Western blot)", "setting": "[5]; [11]", "value": "reduce the expression of AT1"}, {"measurement": "reduced expression of HA", "setting": "[5]; [12]", "value": 64, "unit": "%"}, {"measurement": "reduced expression of collagen-I", "setting": "[5]; [12]", "value": 35, "unit": "%"}, {"measurement": "body weight", "setting": "[5]; tumor-bearing mice", "value": "no change in body weight"}, {"measurement": "FGF-2 gene and protein expression, downstream signaling", "setting": "[6]; obese animals treated with anti-VEGF", "value": "decreases"}, {"measurement": "vessel density", "setting": "[6]; obese animals treated with anti-VEGF, metformin", "value": "decreases"}, {"measurement": "tumor growth response to anti-VEGF", "setting": "[6]; obese setting, metformin", "value": "improved tumor growth response to anti-VEGF"}]}
